A short description of data set [1]: 19F NMR hydration study in aqueous solution. Format: physicochemical. To be noted: pH 7.7, 24 h.
The subject of data set [2] is An. gambiae. Nature of the data set: fumigation toxicity assay. Also on record: species or system Anopheles gambiae. The following applies: in vivo.
Data set [3] concerns G119S AgAChE. It is filed as biochemical, Anopheles gambiae. To be noted: 5g: 60 min incubation; dichlorvos: time not stated.
The subject of data set [4] is An. gambiae. The experiment in a line: injection toxicity. It is filed as in vivo, Anopheles gambiae. To be noted: injection into mosquito thorax.
The target in data set [5] is WT AgAChE (Anopheles gambiae, UniProt Q869C3). Nature of the data set: modified Ellman assay, WT AgAChE inhibition. It is filed as biochemical. Background: In Ellman's method for cholinesterases, released thiocholine reacts with DTNB.
For data set [6], the system named is susceptible (G3) strain adult An. gambiae. Nature of the data set: tarsal contact toxicity, WHO treated paper protocol. Format: in vivo, Anopheles gambiae. The following applies: 40% mortality at 1000 μg/mL vs propoxur LC50 39 μg/mL.
Data set [7] is described as follows: evaporative weight loss at room temperature. Format: physicochemical. The following applies: open 1 dram vial, fume hood.
Data set [8] deals with G119S AgAChE (Anopheles gambiae, UniProt Q869C3, G280S). It is filed as biochemical. The following applies: 60 min incubation.

`CC(C)(C)c1cccc(C(=O)C(F)(F)F)c1` [Compound 5c]: the “% hydrated (19F NMR)” value in data set [1] stood at 88%.
On to `CCC(CC)n1cc(C(=O)C(F)(F)F)cn1` [Compound 5g], for which the “fumigation toxicity fold less than dichlorvos” value in data set [2] was more than 100 fold. Besides, the “ratio of G119S and WT AgAChE IC50 values” in data set [3] was “roughly 2,500 fold”. Also, the “Injection mortality at 50 ng/insect” value in data set [4] stood at 83 ± 6%. Further, the “% hydrated (19F NMR)” value in data set [1] is listed as 67%. Also, the “potency at WT AgAChE fold greater than dichlorvos” value in data set [5] worked out at 100 fold. For the same compound, the “tarsal contact toxicity fold lower relative to propoxur” value in data set [6] is given as ~ 25 fold. Besides, the “% mass lost by evaporation” value in data set [7] (1 day) is 9 ± 1%; in data set [7] (6 days), 33 ± 1%; in data set [7] (12 days), 68 ± 1%; in data set [7] (28 days), 99 ± 1%.
For the compound `CCC(CC)n1cc(C(=O)C(F)F)cn1` [Compound 9g], in data set [8], the “G119S AgAChE IC50 fold lower than that of dichlorvos” value came out at 2 fold and the “G119S AgAChE IC50 fold lower than that of trifluoromethyl ketone 5g” value turned out to be 13 fold. In addition, in data set [4], the “Injection mortality at 50 ng/insect” value is 65 ± 4%. Further, in data set [5] (incubation time not specified), the “WT AgAChE inhibition (IC50) as summarised in text” value is on record as “single digit nanomolar”.
In the case of `CC(C)Cn1cc(C(=O)C(F)F)cn1` [Compound 9i], the “% hydrated (19F NMR)” value in data set [1] is on record as 22%.
Take `CCC(CC)n1cc(C(=O)CF)cn1` [Compound 10g]: the “Injection mortality at 50 ng/insect” value in data set [4] turned out to be 21 ± 8%. Further, the “WT AgAChE IC50 fold higher than that of propoxur” value in data set [5] (10 minute incubation time) was “roughly 2 fold”.
With `CC(C)Cn1cc(C(=O)CF)cn1` [Compound 10i], the “% hydrated (19F NMR)” value in data set [1] is less than 5%.
As to `COP(=O)(OC)OC=C(Cl)Cl` [dichlorvos], the “% mass lost by evaporation” value in data set [7] (1 day) is 2 ± 1%; in data set [7] (6 days), 16 ± 1%; in data set [7] (12 days), 32 ± 1%; in data set [7] (28 days), 51 ± 1%.
With `CNC(=O)Oc1ccccc1OC(C)C` [propoxur], the “Injection LD50” value in data set [4] (95% confidence interval in parenthesis) is reported as 0.24 (0.20–0.34) ng/insect. The “% mass lost by evaporation” value in data set [7] (1 day) stood at 0 ±1%; in data set [7] (6 days) it was 0 ± 1%; in data set [7] (12 days), 1 ± 1%.

The values are drawn from publication PMC4593063 (Bioorganic & medicinal chemistry letters, 2015).
